Results on 2 molecules are retold here after patent US20120264827A1, “SULFANYLAMIDE DERIVATIVES, USES THEREOF AND COMPOSITIONS COMPRISING THEM” (YISSUM RESEARCH DEVELOPMENT COMPANY OF THE HEBREW …, priority 2009, published 2012).

Read-outs that look alike come from different tables or passages of the source. Bounds are passed on as bounds.

For data set [1], the system named is maximal electroshock seizure (MES). Nature of the data set: Maximal electroshock seizure test (MES), rats, oral.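 For all read-outs here: adult male Sprague-Dawley rats received test compounds by mouth as a suspension in 0.5% methylcellulose.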 As to conditions: Rattus norvegicus, po; for responders at 30 mg/kg: read-out: Anti-MES activity (number of animals protected/number of animals tested); for ED50: read-out: MES ED50, rats dosed orally, interval in parentheses = 95% confidence interval.
Description: (§1) The tested compounds were suspended in 0.5% methylcellulose and administered (a) intraperitioneally (ip) to adult male CF no. 1 albino mice (18-25 g) in volume of 0.01 mL/g body weight and (b) orally to adult male Sprague-Dawley albino rats (100-150 g) in volume of 0.04 mL per 10 g of body weight.
(§2) The TD50 was determined by varying the dose of the tested compounds until four points were established between the dose level that induced no signs of minimal motor impairment in any of the animals and the dose at which all the animals were considered impaired. […] The PIs were calculated by dividing the TD50 by the ED50.

In data set [2] the test system is subcutaneous metrazol (pentylenetetrazol) seizure. Nature of the data set: Subcutaneous metrazol seizure threshold test (scMet), mice, intraperitoneal.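 Note: adult male CF no. 1 albino mice weighing 18-25 g, dosed intraperitoneally with compounds suspended in 0.5% methylcellulose.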 As to conditions: ip. Format: in vivo.
The subject of data set [3] is maximal electroshock seizure (MES). In words: Maximal electroshock seizure test (MES), mice, intraperitoneal.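 Note: adult male CF no. 1 albino mice of 18–25 g, given compound intraperitoneally as a 0.5% methylcellulose suspension.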 Format: in vivo. As to conditions: ip.
For data set [4], the system named is subcutaneous metrazol (pentylenetetrazol) seizure. In words: animal or person. As to conditions: Rattus norvegicus, po, read-out: scMet ED50.
Description: (§3) The evaluation of the anticonvulsant activity in the maximal electroshock seizure test (MES) and subcutaneous metrazol seizure threshold test (scMet) and the determination of neurotoxicity in the rotorod test, positional sense test, and others were performed according to the protocols described in White, H. S., Woodhead J. H., Wilcox K. S., Stables J. P., Kupferberg H. J., Wolf H. H., Discovery and Preclinical Development of Antiepileptic Drugs; 5th ed.; Lippincott Williams &Wilkins: New york, 2002; 36-48.
(§4) The tested compounds were suspended in 0.5% methylcellulose and administered (a) intraperitioneally (ip) to adult male CF no. 1 albino mice (18-25 g) in volume of 0.01 mL/g body weight and (b) orally to adult male Sprague-Dawley albino rats (100-150 g) in volume of 0.04 mL per 10 g of body weight. The pentylenetetrazol solution at convulsing dose was prepared by sufficient dissolution of pentylenetetrazol in 0.9% saline to make 0.85% solution for administration to mice and a 2.82% solution for administration to rats.
as §2
A short description of data set [5]: in vivo. As to conditions: male, Sprague-Dawley, rat, po.
Description: as §1, §2
The test system of data set [6] is subcutaneous metrazol (pentylenetetrazol) seizure. Conditions: male, Sprague-Dawley, rat, in vivo, po.
Description: as §3, §4, §2
The test system of data set [7] is maximal electroshock seizure (MES). Conditions: male, Sprague-Dawley, rat, in vivo, po.
Description: as §1, §2
Where [8] appears, read: 30 mg/kg, 0.5 h after administration.
[9] abbreviates: 30 mg/kg, 4 h after administration.
Setting [10] is: 100 mg/kg, 0.5 h after administration.
Setting [11] is: 100 mg/kg, 4 h after administration.
Setting [12] is: 300 mg/kg, 0.5 h after administration.
Where [13] appears, read: 300 mg/kg, 4 h after administration.

In turn, `CCCCC(CC)C(=O)Nc1ccc(S(N)(=O)=O)cc1` (stereo not drawn) [Compound 25, 2-Ethyl-N-(4-sulfamoyl-phenyl)-hexanamide] gave a melting point of 188 to 190 °C. In data set [1] (0.5 h), the responders at 30 mg/kg stood at 0%. In addition, in data set [1] (1 h), the responders at 30 mg/kg was 100%. In addition, in data set [1] (2 h), the responders at 30 mg/kg is 75%. Moreover, the responders at 30 mg/kg in data set [1] (4 h) is 100%. Besides, the responders at 30 mg/kg in data set [1] ([…]) came to 0%. In data set [1], the ED50 is 23.9 mg/kg. Further, in data set [2] (setting [8]), the “scMet (number of animals protected/number of animals tested)” value was 0/1. For the same molecule, in data set [2] (setting [9]), the “scMet (number of animals protected/number of animals tested)” value is 0/1 0/1 0/1. In data set [2] (setting [10]), the “scMet (number of animals protected/number of animals tested)” value is 2/5. Also, the “scMet (number of animals protected/number of animals tested)” value in data set [2] (setting [11]) is 0/1 0/1 0/1. Also, in data set [2] (setting [12]), the “scMet (number of animals protected/number of animals tested)” value is reported as 3/5. In addition, the “scMet (number of animals protected/number of animals tested)” value in data set [2] (setting [13]) is on record as 0/1 0/1 0/1. For the same molecule, in data set [3] (setting [8]), the “MES (number of animals protected/number of animals tested)” value is 0/1. Further, the “MES (number of animals protected/number of animals tested)” value in data set [3] (setting [9]) is on record as 0/1. The “MES (number of animals protected/number of animals tested)” value in data set [3] (setting [10]) was 3/3. For the same molecule, the “MES (number of animals protected/number of animals tested)” value in data set [3] (setting [11]) was 3/3. In addition, the “MES (number of animals protected/number of animals tested)” value in data set [3] (setting [12]) is reported as 1/1. Further, the “MES (number of animals protected/number of animals tested)” value in data set [3] (setting [13]) was 1/1. Moreover, the ED50 in data set [4] was > 250 mg/kg. The TD50 in data set [5] was > 500 mg/kg. Also, the “PI, protective index (PI = TD50/ED50) in the scMet test” value in data set [6] is recorded as >2. In addition, in data set [7], the “PI, protective index (PI = TD50/ED50) in the MES test” value is >21.0.
Consider `CCCC(C)C(=O)Nc1ccc(S(N)(=O)=O)cc1` (stereo not drawn) [Compound 16, 2-Methyl-N-(4-sulfamoyl-phenyl)-pentanamide], for which the responders at 30 mg/kg in data set [1] (0.5 h) is 25%; in data set [1] (1 h), 100%; in data set [1] (2 h), 100%; in data set [1] (4 h) it was 100%; in data set [1] ([…]), 25%. Moreover, the ED50 was ~10 mg/kg in data set [1] and > 250 mg/kg in data set [4]. In addition, the “scMet (number of animals protected/number of animals tested)” value in data set [2] (setting [8]), in data set [2] (setting [9]), in data set [2] (setting [10]), in data set [2] (setting [11]), in data set [2] (setting [12]) and in data set [2] (setting [13]) was 0/1 0/1 0/1 each time. The “MES (number of animals protected/number of animals tested)” value in data set [3] (setting [8]) is reported as 0/1; in data set [3] (setting [9]) it was 0/1; in data set [3] (setting [10]), 0/3; in data set [3] (setting [11]), 2/3; in data set [3] (setting [12]), 0/1; in data set [3] (setting [13]) it was 1/1. The TD50 in data set [5] is > 500 mg/kg. In addition, the “PI, protective index (PI = TD50/ED50) in the scMet test” value in data set [6] was >2. Further, the “PI, protective index (PI = TD50/ED50) in the MES test” value in data set [7] is listed as >46.3.
